From patent publication US20150166523A1, “BRANCHED CHAIN ALKYL HETEROAROMATIC RING DERIVATIVE” (TAISHO PHARMACEUTICAL CO., LTD., priority 2012, published 2015)

What was measured:
[1] = target: T1, orexin-2 receptor (hOX2R) (Homo sapiens, UniProt O43614); assay: Measurement of orexin antagonistic activity (intracellular Ca2+ fluorescence, FDSS) on hOX2R; type: cell-based; details: CHO cells forcibly expressing hOX2R; Fluo-4AM; ligand peptide (substituted human orexin-A) 3 nM; compound preincubated 30 minutes; read-out: IC50 Value OX2
T1 construct: expressed in transfected cells; host or cells: Chinese hamster ovary (CHO) cells
T1 sequence (O43614 1-444): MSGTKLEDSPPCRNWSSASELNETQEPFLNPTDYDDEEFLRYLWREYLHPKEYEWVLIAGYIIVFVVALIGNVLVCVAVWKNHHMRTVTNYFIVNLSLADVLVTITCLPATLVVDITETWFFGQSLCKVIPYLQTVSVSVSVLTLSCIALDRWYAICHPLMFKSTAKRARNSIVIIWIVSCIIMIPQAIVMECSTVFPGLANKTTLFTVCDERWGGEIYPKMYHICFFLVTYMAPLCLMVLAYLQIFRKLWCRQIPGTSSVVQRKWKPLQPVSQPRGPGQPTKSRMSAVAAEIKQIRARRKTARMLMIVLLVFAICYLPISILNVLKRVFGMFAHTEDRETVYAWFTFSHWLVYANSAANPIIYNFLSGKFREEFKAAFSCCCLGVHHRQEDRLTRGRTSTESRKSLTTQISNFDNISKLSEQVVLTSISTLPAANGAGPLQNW
Procedure: (§1) The antagonistic activities of the test compounds on human orexin-1 receptor (hOX1R) and orexin-2 receptor (hOX2R) were measured by modifying from the method described in literature (Toshikatsu Okumura et al., Biochemical and Biophysical Research Communications, 280, 976-981, 2001). Chinese hamster ovary (CHO) cells forcibly expressing the hOX1R and hOX2R were seeded into a 96 well Black clear bottom plate (Nunc) at 20,000 cells per well, which were cultured in Ham's F-12 medium containing 0.1 mM MEM non-essential amino acids, 0.5 mg/mL G418, 10% fetal bovine serum (all by Invitrogen) for 16 hours under the conditions of 37° C., 5% CO2. After removing the medium, 100 μL of 0.5 μM Fluo-4AM ester (Dojin) in an assay buffer (25 mM HEPES (Dojin), Hank's balanced salt solution (Invitrogen), 0.1% bovine serum albumin, 2.5 mM probenecid, 200 μg/mL Amaranth (all by Sigma-Aldrich), pH 7.4) was added and the cells were incubated for 60 minutes at 37° C., 5% CO2. After removing the assay buffer containing fluo-4AM ester, the test compound was dissolved in dimethyl sulfoxide to be 10 mM and diluted with the assay buffer, 150 μL, of which was added and incubated for 30 minutes.
(§2) The reaction was measured for the fluorescence intensity of each well every second for 3 minutes using Functional Drug Screening System (FDSS; Hamamatsu Photonics K.K.), and the antagonistic activity was determined using the maximum fluorescence intensity as the indicator of intracellular Ca2+ concentration.

[2] = target: T2, human orexin-1 receptor (hOX1R) (Homo sapiens, UniProt O43613); assay: Measurement of orexin antagonistic activity (intracellular Ca2+ fluorescence, FDSS) on hOX1R; type: cell-based; details: CHO cells forcibly expressing hOX1R; Fluo-4AM; ligand peptide (substituted human orexin-A) 300 pM; compound preincubated 30 minutes; read-out: IC50 Value OX1
T2 construct: expressed in transfected cells; host or cells: Chinese hamster ovary (CHO) cells
T2 sequence (O43613 1-425): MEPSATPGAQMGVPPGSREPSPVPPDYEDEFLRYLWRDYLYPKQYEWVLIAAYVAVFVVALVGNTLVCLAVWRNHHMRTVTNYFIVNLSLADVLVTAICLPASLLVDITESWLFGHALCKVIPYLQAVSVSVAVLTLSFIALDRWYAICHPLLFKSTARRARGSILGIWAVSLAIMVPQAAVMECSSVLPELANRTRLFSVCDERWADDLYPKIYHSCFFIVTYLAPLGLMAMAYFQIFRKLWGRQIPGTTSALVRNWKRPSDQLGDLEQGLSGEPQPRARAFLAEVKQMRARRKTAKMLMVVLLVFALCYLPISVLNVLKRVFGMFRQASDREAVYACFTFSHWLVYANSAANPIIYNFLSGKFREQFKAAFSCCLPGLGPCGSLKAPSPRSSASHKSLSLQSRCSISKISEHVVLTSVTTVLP
Procedure: as §1, §2

IC50 [1]	IC50 [2]	Compound
1.1 nM	1 nM	CCN(C(=O)c1cc(C)ccc1-n1nccn1)[C@@H](C)Cn1ccc(-c2ccc(F)cn2)n1 [Example 1, N-Ethyl-N-{(2S)-1-[3-(5-fluoropyridin-2-yl)-1H-pyrazol-1-yl]propan-2-yl}-5-methyl-2-(2H-1,2,3-triazol-2-yl)benzamide]
186 nM	17.4 nM	CCN(C(=O)c1cc(C)ccc1-n1nccn1)[C@H](C)Cn1ccc(-c2ccc(F)cn2)n1 [Example 2, N-Ethyl-N-{(2R)-1-[3-(5-fluoropyridin-2-yl)-1H-pyrazol-1-yl]propan-2-yl]-5-methyl-2-(2H-1,2,3-triazol-2-yl) benzamide]
4.5 nM	1 nM	CCN(C(=O)c1nc(C)ccc1-n1nccn1)[C@@H](C)Cn1ccc(-c2ccc(F)cc2)n1 [Example 3, N-Ethyl-N-[(2S)-1-[3-(4-fluorophenyl)-1H-pyrazol-1-yl]propan-2-yl]-6-methyl-3-(2H-1,2,3-triazol-2-yl) pyridine-2-carboxamide]
67 nM	1.7 nM	C[C@@H](Cn1ccc(-c2ccc(F)cn2)n1)N(C)C(=O)c1ccccc1-c1ncccn1 [Example 4, N-[(2S)-1-[3-(5-Fluoropyridin-2-yl)-1H-pyrazol-1-yl]propan-2-yl]-N-methyl-2-(pyrimidin-2-yl)benzamide]
75.5 nM		C[C@@H](Cn1ccc(-c2ccc(F)cn2)n1)N(C)C(=O)c1cc(F)ccc1-c1ncccn1 [Example 5, 5-Fluoro-N-{(2S)-1-[3-(5-fluoropyridin-2-yl)-1H-pyrazol-1-yl]propan-2-yl}-N-methyl-2-(pyrimidin-2-yl)benzamide]
8.4 nM	1.2 nM	Cc1ccc(-c2ncccn2)c(C(=O)N(C)[C@@H](C)Cn2ccc(-c3ccc(F)cn3)n2)c1 [Example 6, N-{(2S)-1-[3-(5-Fluoropyridin-2-yl)-1H-pyrazol-1-yl]propan-2-yl}-N,5-dimethyl-2-(pyrimidin-2-yl) benzamide]
43.1 nM	6.8 nM	CCN(C(=O)c1ccccc1-c1ncccn1)[C@@H](C)Cn1ccc(-c2ccc(F)cn2)n1 [Example 7, N-Ethyl-N-{(2S)-1-[3-(5-fluoropyridin-2-yl)-1H-pyrazol-1-yl]propan-2-yl}-2-(pyrirnidin-2-yl) benzamide]
35.3 nM	1.5 nM	CCN(C(=O)c1cc(F)ccc1-c1ncccn1)[C@@H](C)Cn1ccc(-c2ccc(F)cn2)n1 [Example 8, N-Ethyl-5-fluoro-N-[(2S)-1-[3-(5-fluoropyridin-2-yl)-1H-pyrazol-1-yl]propan-2-yl]-2-(pyrimidin-2-yl) benzamide]
1420 nM	988 nM	CCN(C(=O)c1cc(F)ccc1-c1ncccn1)[C@H](C)Cn1ccc(-c2ccc(F)cn2)n1 [Example 9, N-Ethyl-5-fluoro-N-[(2R)-1-[3-(5-fluoropyridin-2-yl)-1H-pyrazol-1-yl]propan-2-yl)-2-(pyrimidin-2-yl) benzamide]
12.8 nM	0.2 nM	CCN(C(=O)c1ccccc1-c1ncccn1)[C@@H](C)Cn1ccc(-c2ccc(F)cc2)n1 [Example 10, N-Ethyl-N-[(2S)-1-[3-(4-fluorophenyl)-1H-pyrazol-1-yl]propan-2-yl)-2-(pyrimidin--2-yl) benzamide]
14.4 nM	0.2 nM	CCN(C(=O)c1cc(F)ccc1-c1ncccn1)[C@@H](C)Cn1ccc(-c2ccc(F)cc2)n1 [Example 11, N-Ethyl-5-fluoro-N-[(2S)-1-[3-(4-fluorophenyl)-1H-pyrazol-1-yl]propan-2-yl}-2-(pyrimidin-2-yl) benzamide]
580 nM	364 nM	CCN(C(=O)c1cc(F)ccc1-c1ncccn1)[C@H](C)Cn1ccc(-c2ccc(F)cc2)n1 [Example 12, N-Ethyl-5-fluoro-N-[(2R)-1-[3-(4-fluorophenyl)-1H-pyrazol-1-yl]propan-2-yl]-2-(pyrimidin-2-yl)benzamide]
53.9 nM	1.9 nM	CCN(C(=O)c1c(F)cccc1-c1ncccn1)[C@@H](C)Cn1ccc(-c2ccc(F)cc2)n1 [Example 13, N-Ethyl-2-fluoro-N-[(2S)-1-[3-(4-fluorophenyl)-1H-pyrazol-1-yl]propan-2-yl)-6-(pyrimidin-2-yl)benzamide]
7 nM	1.3 nM	CCN(C(=O)c1ccc(F)cc1-c1ncccn1)[C@@H](C)Cn1ccc(-c2ccc(F)cc2)n1 [Example 14, N-Ethyl-4-fluoro-N-[(2S)-1-[3-(4-fluorophenyl)-1H-pyrazol-1-yl]propan-2-yl)-2-(pyrimidin-2-yl)benzamide]
18 nM	1.2 nM	CCN(C(=O)c1nc(C)ccc1-c1ncccn1)[C@@H](C)Cn1ccc(-c2ccc(F)cc2)n1 [Example 15, N-Ethyl-N-[(2S)-1-[3-(4-fluorophenyl)-1H-pyrazol-1-yl]propan-2-yl}-6-methyl-3-(pyrimidin-2-yl)pyridine-2-carboxamide]
9.7 nM	1.8 nM	CCN(C(=O)c1nc(C)ccc1-n1nccn1)[C@@H](C)Cn1ccc(-c2ccc(F)c(F)c2)n1 [Example 16, N-[(2S)-1-[3-(3,4-Difiuorophenyl)-1H-pyrazol-1-yl]propan-2-yl]-N-ethyl-6-methyl-3-(2H-1,2,3-triazol-2-yl)pyridine-2-carboxamide]
10.1 nM	2.1 nM	CCN(C(=O)c1cc(F)ccc1-c1ncccn1)[C@@H](C)Cn1ccc(-c2ccc(F)c(F)c2)n1 [Example 17, N-{(2S)-1-[3-(3,4-Difluorophenyl)-1H-pyrazol-1-yl]propan-2-yl}-N-ethyl-5-fluoro-2-(pyrimidin-2-yl)benzamide]
7.7 nM	0.7 nM	CCN(C(=O)c1ccccc1-n1nccn1)[C@@H](C)Cn1ccc(-c2ccc(F)cn2)n1 [Example 18, N-Ethyl-N-{(2S)-1-[3-(5-fluoropyridin-2-yl)-1H-pyrazol-1-yl]propan-2-yl}-2-(2H-1,2,3-triazol-2-yl)benzamide]
5.8 nM	1.1 nM	Cc1ccc(-n2nccn2)c(C(=O)N(C)[C@@H](C)Cn2ccc(-c3ccc(F)cn3)n2)c1 [Example 19, N-{(2S)-1-[3-(5-Fluoropyridin-2-yl)-1H-pyrazol-1-yl]propan-2-yl}-N,5-dimethyl-2-(2H-1,2,3-triazol-2-yl) benzamide]
55.9 nM	3.4 nM	C[C@@H](Cn1ccc(-c2ccc(F)cn2)n1)N(C)C(=O)c1ccccc1-n1nccn1 [Example 20, N-{(2S)-1-[3-(5-Fluoropyridin-2-yl)-1H-pyrazol-1-yl]propan-2-yl}-N-methyl-2-(2H-1,2,3-triazol-2-yl)benzamide]
188 nM	8.1 nM	CCN(C(=O)c1ccccc1-n1nccn1)[C@@H](C)Cn1cc(-c2ccc(F)cn2)cn1 [Example 21, N-Ethyl-N-{(2S)-1-[4-(5-fluoropyridin-2-yl)-1H-pyrazol-1-yl]propan-2-yl}-2-(2H-1,2,3-triazol-2-yl)benzamide]
52.9 nM	3.8 nM	Cc1ccc(-n2nccn2)c(C(=O)N(C)[C@@H](C)Cn2cc(-c3ccc(F)cn3)cn2)c1 [Example 22, N-{(2S)-1-[4-(5-Fluoropyridin-2-yl)-1H-pyrazol-1-yl]propan-2-yl}-N,5-dimethyl-2-(2H-1,2,3-triazol-2-yl) benzamide]
	21.6 nM	Cc1ccc(-c2ncccn2)c(C(=O)N(C)[C@@H](C)Cc2noc(-c3ccc(F)cn3)n2)c1 [Example 46, N-{(2S)-1-[5-(5-Fluoropyridin-2-yl)-1,2,4-oxadiazol-3-yl]propan-2-yl}-N,5-dimethyl-2-(pyrimidin-2-yl)benzamide]
